This experiment has as its target PD-L1 His protein / PD-1 Fc protein (Homo sapiens, UniProt Q9NZQ7). Briefly: HTRF Assay (PD-1/PD-L1 interaction). In kind it is binding. To be noted: PD-L1 His 6 nM, PD-1 Fc 6 nM. As for the experimental part:
PD-L1 His protein was prepared and added at the final concentration of 6 nM in the White opaque 384 well plate (Corning cat #3824BC). PD-L1 small molecule inhibitors were diluted by 3-fold starting from 20 μM and a final concentration of 0.001 μM and added to the well. PD-1 Fc protein was added at the final concentration of 6 nM. PD-L1 His protein, PD-L1 small molecule inhibitors, and PD1 Fc proteins were added to the well in this order, with each 5 μl volume, and were incubated for 15 minutes at room temperature. PAb anti-Human IgG-XL665 (Cisbio, cat #61HFCXLA) and Mab anti-6HIS Tb cryptate Gold (Cisbio, cat #61HI2TLA) were mixed at 6.7 nM and 0.35 nM respectively, and total 5 μl volume of mixture was added to the well and incubated at room temperature for 1 hour. The plate was read using PerkinElmer Envision plate reader and data was analyzed by Prism 6 software.
Chain of PD-L1 His protein / PD-1 Fc protein (Q9NZQ7 19-238 limits assumed): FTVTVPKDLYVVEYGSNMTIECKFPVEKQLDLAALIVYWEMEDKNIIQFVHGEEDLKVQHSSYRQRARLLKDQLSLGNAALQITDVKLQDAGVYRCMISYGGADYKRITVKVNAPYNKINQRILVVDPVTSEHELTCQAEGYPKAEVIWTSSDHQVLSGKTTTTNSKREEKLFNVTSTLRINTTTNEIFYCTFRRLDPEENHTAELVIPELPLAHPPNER
For orientation: IC50 means the point on the concentration scale where inhibition reaches its midpoint. In turn, `COc1nc(-c2cccc(-c3cccc(-c4ccc5c(n4)N(C)CCC5NC[C@@H]4CCC(=O)N4)c3Cl)c2Cl)cnc1CNC[C@@H]1CCC(=O)N1` (mixture of isomers) [Example 56, (5S)-5-(((7-(2,2′-Dichloro-3′-(6-methoxy-5-(((((S)-5-oxopyrrolidin-2-yl)methyl)amino)methyl)pyrazin-2-yl)-[1,1′-biphenyl]-3-yl)-1-methyl-1,2,3,4-tetrahydro-1,8-naphthyridin-4-yl)amino)methyl)pyrrolidin-2-one] had an IC50 of 0.7 nM.

In turn, `Cc1c(-c2ccn3c(=O)c(CNC[C@@H]4CCC(=O)N4)cnc3c2)cccc1-c1cccc(-c2ccc3c(n2)N(C)CCC3NC[C@@H]2CCC(=O)N2)c1Cl` (mixture of isomers) [Example 68, 8-(2′-Chloro-2-methyl-3′-(8-methyl-5-((((S)-5-oxopyrrolidin-2-yl)methyl)amino)-5,6,7,8-tetrahydro-1,8-naphthyridin-2-yl)-[1,1′-biphenyl]-3-yl)-3-(((((S)-5-oxopyrrolidin-2-yl)methyl)amino)methyl)-4H-pyrido[1,2-a]pyrimidin-4-one] registered an IC50 of 11 nM.

In turn, `COc1nc(-c2cccc(-c3cccc(-c4ccc5c(n4)N(C)CCC5NCc4cncc(F)c4)c3Cl)c2Cl)ccc1CNC[C@@H]1CCC(=O)N1` (mixture of isomers) [Example 91, (5S)-5-((((6-(2,2′-Dichloro-3′-(5-(((5-fluoropyridin-3-yl)methyl)amino)-8-methyl-5,6,7,8-tetrahydro-1,8-naphthyridin-2-yl)-[1,1′-biphenyl]-3-yl)-2-methoxypyridin-3-yl)methyl)amino)methyl)pyrrolidin-2-one] yielded an IC50 of 180 nM.

The molecule `COc1nc(-c2cccc(-c3cccc(-c4ccn5c(=O)c(CNC[C@H]6C[C@H]6CO)cnc5c4)c3Cl)c2Cl)ccc1CNC[C@@H]1CCC(=O)N1` (racemic) [Example 225, 8-(2,2′-dichloro-3′-(6-methoxy-5-(((((S)-5-oxopyrrolidin-2-yl)methyl)-amino)-methyl)-pyridin-2-yl)-[1,1′-biphenyl]-3-yl)-3-(((((1S,2R)-2-(hydroxymethyl)-cyclopropyl)methyl)amino)methyl)-4H-pyrido[1,2-a]pyrimidin-4-one] had an IC50 of 0.2 nM. This IC50 is about 900-fold lower than that of the molecule before.

`COc1nc(-c2cccc(-c3cccc(-c4ccc5c(n4)CCCC5NC[C@@H]4CCC(=O)N4)c3Cl)c2Cl)ccc1CNC[C@@H]1CCC(=O)N1` (mixture of isomers) [Example 235, (5S)-5-((((6-(2,2′-Dichloro-3′-(5-((((S)-5-oxopyrrolidin-2-yl)methyl)amino)-5,6,7,8-tetrahydroquinolin-2-yl)-[1,1′-biphenyl]-3-yl)-2-methoxypyridin-3-yl)methyl)amino)methyl)pyrrolidin-2-one]: 1 nM corresponded to half-maximal inhibition (IC50).

Regarding `COc1nc(-c2cccc(-c3cccc(-c4ccn5c(=O)c(CNC[C@@H]6C[C@H]6CO)cnc5c4)c3Cl)c2Cl)ccc1CNC[C@@H]1CCC(=O)N1` (racemic) [Example 245, 8-(2,2′-dichloro-3′-(6-methoxy-5-(((((S)-5-oxopyrrolidin-2-yl)-methyl)amino)-methyl)-pyridin-2-yl)-[1,1′-biphenyl]-3-yl)-3-(((((1R,2R)-2-(hydroxymethyl)-cyclopropyl)methyl)amino)-methyl)-4H-pyrido[1,2-a]pyrimidin-4-one], the IC50 amounted to 2.1 nM.

Molecule `COc1nc(-c2cccc(-c3cccc(-c4ccc5c(n4)CCCC5NC[C@H](C)O)c3Cl)c2Cl)ccc1CNC[C@@H]1CCC(=O)N1` (mixture of isomers) [Example 390, (5S)-5-((((6-(2,2′-Dichloro-3′-(5-(((S)-2-hydroxypropyl)amino)-5,6,7,8-tetrahydroquinolin-2-yl)-[1,1′-biphenyl]-3-yl)-2-methoxypyridin-3-yl)methyl)amino)methyl)pyrrolidin-2-one] yielded an IC50 of 6.5 nM.

Regarding `COc1nc(-c2cccc(-c3cccc(-c4cc5c(=O)n(C)c(CNCC6CC(F)(F)C(=O)N6)nn5c4)c3Cl)c2Cl)ccc1CNC[C@@H]1CCC(=O)N1` (mixture of isomers) [Example 450, 6-[2-Chloro-3-[2-chloro-3-[6-methoxy-5-[[[rac-(2S)-5-oxopyrrolidin-2-yl]methylamino]methyl]-2-pyridyl]phenyl]phenyl]-2-[[(4,4-difluoro-5-oxo-pyrrolidin-2-yl)methylamino]methyl]-3-methyl-pyrrolo[2,1-f][1,2,4]triazin-4-one], the half-maximal inhibitory concentration (IC50) came out at 12 nM.

`COc1nc(-c2cccc(-c3cccc(-c4ccc5c(n4)N(C)CCC5NC[C@@H]4CCC(=O)N4)c3Cl)c2Cl)ccc1CNC[C@@H]1CCC(=O)N1` (single isomer, unassigned) [Example 52]: half-maximal inhibition (IC50) required 0.8 nM.

As to `COc1nc(-c2cccc(-c3cccc(-c4ccc5c(n4)N(C)CCC5NC[C@@H]4CCC(=O)N4)c3Cl)c2Cl)ccc1CNC[C@@H]1CCC(=O)N1` (single isomer, unassigned) [Example 53], the IC50 was 1.7 nM.

Consider `COc1nc(-c2cccc(-c3cccc(-c4ccn5c(=O)c(CNC6CC7(CCNC7=O)C6)cnc5c4)c3Cl)c2Cl)ccc1CNC[C@@H]1CCC(=O)N1` (single isomer, unassigned) [Example 249], for which the IC50 was 0.6 nM. This IC50 lies about 2.8-fold lower than the previous one.

`COc1nc(-c2cccc(-c3cccc(-c4ccn5c(=O)c(CNC6CC7(CCNC7=O)C6)cnc5c4)c3Cl)c2Cl)ccc1CNC[C@@H]1CCC(=O)N1` (single isomer, unassigned) [Example 250] registered an IC50 of 1 nM. This IC50 lies about 1.7-fold higher than the previous one.

`COc1nc(-c2cccc(-c3cccc(-c4ccn5c(=O)c(CNC6CC7(CCNC7=O)C6)cnc5c4)c3Cl)c2Cl)ccc1CNC[C@@H]1CCC(=O)N1` (single isomer, unassigned) [Example 251]: inhibition was half-maximal at 8.9 nM (IC50).

The molecule `Cc1c(COc2cc(OCc3cncc(C(N)=O)c3)c(CNCCO)cc2Cl)cccc1-c1cccc(-c2ccn3c(=O)c(CNCCO)cnc3c2)c1` [Example 1, 5-((4-Chloro-2-(((2-hydroxyethyl)amino)methyl)-5-((3′-(3-(((2-hydroxyethyl)amino)methyl)-4-oxo-4H-pyrido[1,2-a]pyrimidin-8-yl)-2-methyl-[1,1′-biphenyl]-3-yl)methoxy)phenoxy)methyl)nicotinamide] registered an IC50 of 2.8 nM.

Consider `Cc1c(NC(=O)c2ccc(CNCCO)cn2)cccc1-c1cccc(-c2ccn3c(=O)c(CNCCO)cnc3c2)c1` [Example 2, 5-(((2-Hydroxyethyl)amino)methyl)-N-(3′-(3-(((2-hydroxyethyl)amino)methyl)-4-oxo-4H-pyrido[1,2-a]pyrimidin-8-yl)-2-methyl-[1,1′-biphenyl]-3-yl)picolinamide], for which half-maximal inhibition (IC50) required 79 nM.

The molecule `Cc1c(COc2cc(OCc3cncc(C#N)c3)c(CNCCO)cc2Cl)cccc1-c1cccc(-c2ccn3c(=O)c(CNCCO)cnc3c2)c1C` [Example 3, 5-((4-Chloro-2-(((2-hydroxyethyl)amino)methyl)-5-((3′-(3-(((2-hydroxyethyl)amino)methyl)-4-oxo-4H-pyrido[1,2-a]pyrimidin-8-yl)-2,2′-dimethyl-[1,1′-biphenyl]-3-yl)methoxy)phenoxy)methyl)nicotinonitrile] came in with an IC50 of 1.2 nM.

The molecule `Cc1c(COc2cc(OCc3cncc(C#N)c3)c(CNCCO)cc2Cl)cccc1-c1cccc(-c2ccn3c(=O)c(CNCCO)cnc3c2)c1` [Example 4, 5-((4-Chloro-2-(((2-hydroxyethyl)amino)methyl)-5-((3′-(3-(((2-hydroxyethyl)amino)methyl)-4-oxo-4H-pyrido[1,2-a]pyrimidin-8-yl)-2-methyl-[1,1′-biphenyl]-3-yl)methoxy)phenoxy)methyl)nicotinonitrile] gave an IC50 of 2 nM.

Values taken from US20230143612A1 (Arbutus Biopharma Corporation, priority 2020, published 2023).
